The target in test [1] is T1, Pyridoxal kinase (Homo sapiens, UniProt O00764).
T1 sequence (O00764 whole entry): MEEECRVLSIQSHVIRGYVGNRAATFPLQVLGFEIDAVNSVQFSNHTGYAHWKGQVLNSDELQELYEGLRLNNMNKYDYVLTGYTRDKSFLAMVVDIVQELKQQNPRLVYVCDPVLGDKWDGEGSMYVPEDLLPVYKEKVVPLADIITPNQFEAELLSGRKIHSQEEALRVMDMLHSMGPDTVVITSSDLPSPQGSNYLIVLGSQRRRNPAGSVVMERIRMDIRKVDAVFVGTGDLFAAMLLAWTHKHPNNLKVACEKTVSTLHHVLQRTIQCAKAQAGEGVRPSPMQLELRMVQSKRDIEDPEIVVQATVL

The target of test [2] is T2, Mitogen-activated protein kinase kinase kinase 6 (Homo sapiens, UniProt O95382).
T2 sequence (O95382 whole entry): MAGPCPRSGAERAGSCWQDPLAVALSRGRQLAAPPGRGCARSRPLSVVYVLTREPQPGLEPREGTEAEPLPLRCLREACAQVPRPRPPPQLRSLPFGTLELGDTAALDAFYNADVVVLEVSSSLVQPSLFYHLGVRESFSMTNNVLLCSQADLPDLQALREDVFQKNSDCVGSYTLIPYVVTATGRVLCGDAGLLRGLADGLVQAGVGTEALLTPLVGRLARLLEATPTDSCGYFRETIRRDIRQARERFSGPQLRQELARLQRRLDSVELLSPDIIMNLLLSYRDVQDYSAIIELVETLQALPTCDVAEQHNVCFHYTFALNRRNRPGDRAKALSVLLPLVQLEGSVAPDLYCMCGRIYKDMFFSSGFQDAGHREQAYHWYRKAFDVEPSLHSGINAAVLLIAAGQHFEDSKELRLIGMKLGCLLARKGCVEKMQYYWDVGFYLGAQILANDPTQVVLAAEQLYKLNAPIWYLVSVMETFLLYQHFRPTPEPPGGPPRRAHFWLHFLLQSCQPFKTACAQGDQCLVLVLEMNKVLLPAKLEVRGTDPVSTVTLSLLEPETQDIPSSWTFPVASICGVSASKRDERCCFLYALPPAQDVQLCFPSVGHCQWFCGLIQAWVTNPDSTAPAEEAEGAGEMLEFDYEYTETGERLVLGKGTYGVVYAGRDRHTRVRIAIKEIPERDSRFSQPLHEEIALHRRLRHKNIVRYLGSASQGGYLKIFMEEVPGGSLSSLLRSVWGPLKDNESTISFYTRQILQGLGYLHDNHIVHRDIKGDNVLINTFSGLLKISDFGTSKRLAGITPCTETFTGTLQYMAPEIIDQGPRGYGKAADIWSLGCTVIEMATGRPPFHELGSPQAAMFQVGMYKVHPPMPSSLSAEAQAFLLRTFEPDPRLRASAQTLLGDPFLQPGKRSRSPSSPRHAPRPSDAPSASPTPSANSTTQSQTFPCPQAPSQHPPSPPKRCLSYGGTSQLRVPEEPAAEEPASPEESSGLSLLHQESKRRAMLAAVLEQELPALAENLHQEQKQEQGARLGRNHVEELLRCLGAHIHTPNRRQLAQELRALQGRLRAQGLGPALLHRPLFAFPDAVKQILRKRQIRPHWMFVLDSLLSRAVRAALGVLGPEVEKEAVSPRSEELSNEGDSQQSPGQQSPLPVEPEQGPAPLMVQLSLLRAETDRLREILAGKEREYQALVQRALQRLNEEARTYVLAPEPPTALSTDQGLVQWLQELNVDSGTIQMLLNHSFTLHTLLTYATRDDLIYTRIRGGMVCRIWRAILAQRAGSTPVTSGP

Test [3] concerns the target Fibroblast growth factor receptor 1 (Homo sapiens, UniProt P11362).
Test [4] deals with T3, Phosphorylase b kinase gamma catalytic chain, liver/testis isoform (Homo sapiens, UniProt P15735).
T3 sequence (P15735 whole entry): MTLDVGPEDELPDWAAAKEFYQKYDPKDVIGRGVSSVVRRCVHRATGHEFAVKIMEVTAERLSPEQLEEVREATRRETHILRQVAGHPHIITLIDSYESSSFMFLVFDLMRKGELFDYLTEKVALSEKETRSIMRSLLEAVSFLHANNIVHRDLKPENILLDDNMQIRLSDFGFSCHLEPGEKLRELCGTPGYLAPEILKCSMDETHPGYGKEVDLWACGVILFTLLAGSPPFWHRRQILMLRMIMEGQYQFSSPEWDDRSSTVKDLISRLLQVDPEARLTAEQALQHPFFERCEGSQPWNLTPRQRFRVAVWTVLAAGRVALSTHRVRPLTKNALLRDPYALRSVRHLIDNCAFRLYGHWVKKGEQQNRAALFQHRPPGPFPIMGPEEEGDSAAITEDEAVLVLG

Test [5] has as its target Mitogen-activated protein kinase 11 (Homo sapiens, UniProt Q15759).
The target in test [6] is T4, Glycogen phosphorylase, brain form (Homo sapiens, UniProt P11216).
T4 sequence (P11216 whole entry): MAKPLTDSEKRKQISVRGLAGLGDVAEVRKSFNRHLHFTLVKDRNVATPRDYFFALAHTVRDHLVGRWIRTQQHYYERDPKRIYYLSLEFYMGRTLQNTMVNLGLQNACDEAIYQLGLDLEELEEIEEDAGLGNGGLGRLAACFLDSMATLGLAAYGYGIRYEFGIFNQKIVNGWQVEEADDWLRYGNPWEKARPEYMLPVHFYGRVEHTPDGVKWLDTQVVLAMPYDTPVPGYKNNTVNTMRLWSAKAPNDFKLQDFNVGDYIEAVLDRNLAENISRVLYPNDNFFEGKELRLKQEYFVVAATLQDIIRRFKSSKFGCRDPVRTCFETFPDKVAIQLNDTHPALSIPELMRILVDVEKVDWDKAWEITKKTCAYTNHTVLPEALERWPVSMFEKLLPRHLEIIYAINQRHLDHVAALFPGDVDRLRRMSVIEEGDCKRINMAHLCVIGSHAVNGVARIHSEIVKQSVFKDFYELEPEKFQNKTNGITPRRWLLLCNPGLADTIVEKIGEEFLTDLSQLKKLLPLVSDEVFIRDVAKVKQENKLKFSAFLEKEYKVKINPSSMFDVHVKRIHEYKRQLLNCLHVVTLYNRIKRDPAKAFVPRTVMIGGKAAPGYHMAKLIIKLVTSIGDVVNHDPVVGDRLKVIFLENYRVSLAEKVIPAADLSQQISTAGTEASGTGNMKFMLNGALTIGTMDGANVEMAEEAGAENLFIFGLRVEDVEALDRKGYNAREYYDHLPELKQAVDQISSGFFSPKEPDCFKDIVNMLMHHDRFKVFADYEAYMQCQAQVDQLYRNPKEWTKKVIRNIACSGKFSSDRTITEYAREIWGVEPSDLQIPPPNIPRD

Test [7] addresses Tyrosine-protein kinase FRK (Homo sapiens, UniProt P42685).

Structures are written as SMILES. The source made the active and inactive calls.
Also: in the data inactive means no Kd found up to 30 µM.

Mitogen-activated protein kinase 11, sequence (Q15759 whole entry): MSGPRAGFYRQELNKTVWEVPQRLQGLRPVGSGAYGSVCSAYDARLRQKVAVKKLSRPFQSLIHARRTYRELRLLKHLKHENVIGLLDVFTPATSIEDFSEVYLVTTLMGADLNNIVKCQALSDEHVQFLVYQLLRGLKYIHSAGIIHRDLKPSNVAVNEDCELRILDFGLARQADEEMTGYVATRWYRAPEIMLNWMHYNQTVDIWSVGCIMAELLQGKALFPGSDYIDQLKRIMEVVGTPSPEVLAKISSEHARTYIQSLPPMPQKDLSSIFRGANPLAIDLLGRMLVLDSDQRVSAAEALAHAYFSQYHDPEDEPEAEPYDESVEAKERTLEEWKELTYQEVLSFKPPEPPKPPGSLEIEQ
Fibroblast growth factor receptor 1, sequence (P11362 whole entry, canonical isoform): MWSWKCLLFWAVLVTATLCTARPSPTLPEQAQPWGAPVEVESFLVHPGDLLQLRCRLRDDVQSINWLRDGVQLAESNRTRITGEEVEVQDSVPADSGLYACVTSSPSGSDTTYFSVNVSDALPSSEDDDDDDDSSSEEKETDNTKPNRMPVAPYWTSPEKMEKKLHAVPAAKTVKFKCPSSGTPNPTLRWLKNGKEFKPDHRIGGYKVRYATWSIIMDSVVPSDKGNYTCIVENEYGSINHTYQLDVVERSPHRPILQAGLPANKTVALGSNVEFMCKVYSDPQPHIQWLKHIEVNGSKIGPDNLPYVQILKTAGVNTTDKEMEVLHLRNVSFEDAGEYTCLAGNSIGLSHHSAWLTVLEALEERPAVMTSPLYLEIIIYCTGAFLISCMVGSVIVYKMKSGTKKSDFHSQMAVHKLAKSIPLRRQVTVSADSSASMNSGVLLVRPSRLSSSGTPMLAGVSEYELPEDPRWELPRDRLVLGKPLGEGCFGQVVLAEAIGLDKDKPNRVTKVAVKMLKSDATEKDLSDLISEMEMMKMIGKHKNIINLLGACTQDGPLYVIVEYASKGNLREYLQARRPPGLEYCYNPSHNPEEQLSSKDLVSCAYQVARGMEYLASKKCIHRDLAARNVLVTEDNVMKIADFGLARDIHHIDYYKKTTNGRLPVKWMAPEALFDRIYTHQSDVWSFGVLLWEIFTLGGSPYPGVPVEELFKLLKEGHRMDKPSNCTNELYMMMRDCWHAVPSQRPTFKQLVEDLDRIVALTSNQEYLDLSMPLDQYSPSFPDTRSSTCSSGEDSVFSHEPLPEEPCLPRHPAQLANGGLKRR
Tyrosine-protein kinase FRK, sequence (P42685 whole entry): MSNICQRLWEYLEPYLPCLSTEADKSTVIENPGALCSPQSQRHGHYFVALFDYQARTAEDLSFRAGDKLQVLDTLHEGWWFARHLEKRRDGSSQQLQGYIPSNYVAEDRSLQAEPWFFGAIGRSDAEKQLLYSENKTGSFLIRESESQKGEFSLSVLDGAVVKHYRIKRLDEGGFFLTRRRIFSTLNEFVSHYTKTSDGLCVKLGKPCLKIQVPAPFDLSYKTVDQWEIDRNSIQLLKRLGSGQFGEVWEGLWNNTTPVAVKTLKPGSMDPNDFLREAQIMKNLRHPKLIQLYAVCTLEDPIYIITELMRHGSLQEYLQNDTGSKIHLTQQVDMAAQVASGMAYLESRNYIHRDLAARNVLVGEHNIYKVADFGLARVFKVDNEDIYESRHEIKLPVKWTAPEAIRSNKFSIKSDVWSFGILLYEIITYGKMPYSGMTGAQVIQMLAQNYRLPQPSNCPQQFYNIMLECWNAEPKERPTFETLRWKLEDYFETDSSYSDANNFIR

One may read the Kd as a measure of binding affinity in units of concentration. Regarding `C[C@@H](Oc1cc(C(=O)Nc2ccc(C(=O)N3CCN(C)CC3)cc2)nnc1N)c1c(Cl)ccc(F)c1Cl`, the Kd in test [1], in test [2], in test [3], in test [4], in test [5] and in test [6] was > 30 µM (inactive) throughout. Also, the Kd in test [7] was > 30 µM (inactive).
For `C[C@H]1CNCCCN1S(=O)(=O)c1cccc2cncc(F)c12`, the Kd in test [1], in test [2], in test [3], in test [4], in test [5] and in test [6] was > 30 µM (inactive) throughout. Further, the Kd in test [7] was > 30 µM (inactive).
Consider `CCNC(=O)C#Cc1ccc2c(c1)NC(=O)/C2=C(\Nc1ccc(CN(C)C)cc1)c1ccccc1`, for which the Kd in test [1] was > 30 µM (inactive); in test [2] it was > 30 µM (inactive); in test [3], 2.51 µM (active); in test [4], > 30 µM (inactive); in test [5] it was > 30 µM (inactive); in test [6], > 30 µM (inactive). Also, the dissociation constant (Kd) in test [7] is 0.736 µM (active).
Take `C=CC(=O)N1CCC[C@H](n2c(=O)n(-c3ccc(Oc4ccccc4)cc3)c3c(N)ncnc32)C1`: the Kd in test [1], in test [2], in test [3], in test [4], in test [5] and in test [6] was > 30 µM (inactive) in each case. In addition, the Kd in test [7] is > 30 µM (inactive).
Take `COCc1c(-c2ccc(NC(=O)Nc3cc(C(F)(F)F)ccc3F)c(F)c2)c2c(N)ncnn2c1CN1CCOCC1`: the Kd was > 30 µM (inactive) in test [1]; > 30 µM (inactive) in test [2]; 0.04 µM (active) in test [3]; > 30 µM (inactive) in test [4]; > 30 µM (inactive) in test [5]; > 30 µM (inactive) in test [6]. Besides, the Kd in test [7] is 1.86 µM (active).
`Nc1ncnc2c1c(-c1cccc(OCc3ccccc3)c1)cn2[C@H]1C[C@@H](CN2CCC2)C1` [AEW-541]: the Kd in test [1], in test [2], in test [3], in test [4], in test [5] and in test [6] was > 30 µM (inactive) each time. Also, in test [7], the Kd was > 30 µM (inactive).
For `Cc1csc(-c2nnc(Nc3ccc(Oc4ncccc4-c4ccnc(N)n4)cc3)c3ccccc23)c1` [AMG-900], the Kd in test [1], in test [2], in test [3], in test [4], in test [5] and in test [6] was > 30 µM (inactive) throughout. Besides, in test [7], the Kd was > 30 µM (inactive).
Regarding `C=CC(=O)Nc1cc2c(Nc3ccc(F)c(Cl)c3)ncnc2cc1C#CC(C)(C)N1CCN(C)CC1` [AV-412 FREE BASE], the Kd in test [1], in test [2], in test [3], in test [4], in test [5] and in test [6] was > 30 µM (inactive) in each case. In test [7], the Kd is > 30 µM (inactive).
Regarding `COc1cc([C@@H]2c3cc4c(cc3[C@H](O)[C@H]3COC(=O)[C@@H]23)OCO4)cc(OC)c1OC` [AXL-1717], the Kd in test [1], in test [2], in test [3], in test [4], in test [5] and in test [6] was > 30 µM (inactive) throughout. Moreover, in test [7], the Kd is > 30 µM (inactive).
In the case of `NC(=O)Nc1cc(-c2cccc(F)c2)sc1C(=O)N[C@H]1CCCNC1` [AZD-7762], the Kd in test [1], in test [2], in test [3], in test [4], in test [5] and in test [6] was > 30 µM (inactive) each time. Further, the Kd in test [7] was 1.21 µM (active).
For the compound `Cn1cnc2c(F)c(Nc3ccc(Br)cc3F)c(C(=O)NOCCO)cc21` [BINIMETINIB], the Kd in test [1], in test [2], in test [3], in test [4], in test [5] and in test [6] was > 30 µM (inactive) each time. Further, in test [7], the Kd was > 30 µM (inactive).
In the case of `CCn1c(C(=O)N(C2CC2)C2CC2)cc2c3c(ncn3C)c(Nc3cc(C)n(C)n3)nc21` [BMS-911543], the Kd in test [1], in test [2], in test [3], in test [4], in test [5] and in test [6] was > 30 µM (inactive) in each case. Also, the Kd in test [7] was > 30 µM (inactive).
For `COc1cc2ncnc(Oc3cccc(NC(=O)Nc4cc(C(C)(C)C(F)(F)F)on4)c3)c2cc1OC` [CEP-32496], the Kd in test [1] was > 30 µM (inactive); in test [2] it was > 30 µM (inactive); in test [3] it was > 30 µM (inactive); in test [4] it was > 30 µM (inactive); in test [5], 0.872 µM (active); in test [6], > 30 µM (inactive). Further, binding in test [7] was characterised by a dissociation constant (Kd) of 0.85 µM.

Source of the values: ChEMBL document CHEMBL3991601, “The target landscape of clinical kinase drugs” (Science, 2017).
